Measured values taken from ChEMBL document CHEMBL3407393, “Optimisation of LRRK2 inhibitors and assessment of functional efficacy in cell-based models of neuroinflammation” (Eur J Med Chem, 2015).
The source made the active and inactive calls. The rule behind the calls is not given here.

Assays:
[1] = target: Leucine-rich repeat serine/threonine-protein kinase 2 (Homo sapiens, UniProt Q5S007, G2019S); test: Inhibition of LRRK2 G2019S mutant ([…]) (unknown origin) stably expressed in HEK293 cell lysate using [gamma-32P] after 15 mins by Cerenkov counting method; assay type: cell-free
[2] = Inhibition of IL6 secretion in LPS/IL-1beta-stimulated human U87 cells compound pretreated at 10 uM for 30 mins before stimulation measured after 24 hrs by ELISA; assay type: functional, U-87MG ATCC; conditions: U-87 MG
[3] = (§1) Inhibition of IL6 secretion in LPS/IL-1beta-stimulated human primary microglia compound pretreated at 10 uM for 30 mins before stimulation measured after 24 hrs by ELISA; assay type: functional
[4] = organism: Homo sapiens; test: as §1; assay type: functional
[5] = Inhibition of IL6 secretion in LPS/IL-1beta-stimulated human U87 cells compound pretreated for 30 mins before stimulation measured after 24 hrs by ELISA; assay type: functional, cell-based, U-87MG ATCC; conditions: U-87 MG
[6] = Inhibition of IL6 secretion in LPS/IL-1beta-stimulated human primary microglia compound pretreated for 30 mins before stimulation measured after 24 hrs by ELISA; assay type: functional
[7] = Biochemical index, ratio of IC50 for LRRK2 G2019S mutant (unknown origin) to EC50 for IL6 secretion in LPS/IL-1beta-stimulated human primary microglia
[8] = Oral bioavailability in mouse; assay type: ADME, organism-based; conditions: in vivo

Chain of Leucine-rich repeat serine/threonine-protein kinase 2 (Q5S007 whole entry G2019S): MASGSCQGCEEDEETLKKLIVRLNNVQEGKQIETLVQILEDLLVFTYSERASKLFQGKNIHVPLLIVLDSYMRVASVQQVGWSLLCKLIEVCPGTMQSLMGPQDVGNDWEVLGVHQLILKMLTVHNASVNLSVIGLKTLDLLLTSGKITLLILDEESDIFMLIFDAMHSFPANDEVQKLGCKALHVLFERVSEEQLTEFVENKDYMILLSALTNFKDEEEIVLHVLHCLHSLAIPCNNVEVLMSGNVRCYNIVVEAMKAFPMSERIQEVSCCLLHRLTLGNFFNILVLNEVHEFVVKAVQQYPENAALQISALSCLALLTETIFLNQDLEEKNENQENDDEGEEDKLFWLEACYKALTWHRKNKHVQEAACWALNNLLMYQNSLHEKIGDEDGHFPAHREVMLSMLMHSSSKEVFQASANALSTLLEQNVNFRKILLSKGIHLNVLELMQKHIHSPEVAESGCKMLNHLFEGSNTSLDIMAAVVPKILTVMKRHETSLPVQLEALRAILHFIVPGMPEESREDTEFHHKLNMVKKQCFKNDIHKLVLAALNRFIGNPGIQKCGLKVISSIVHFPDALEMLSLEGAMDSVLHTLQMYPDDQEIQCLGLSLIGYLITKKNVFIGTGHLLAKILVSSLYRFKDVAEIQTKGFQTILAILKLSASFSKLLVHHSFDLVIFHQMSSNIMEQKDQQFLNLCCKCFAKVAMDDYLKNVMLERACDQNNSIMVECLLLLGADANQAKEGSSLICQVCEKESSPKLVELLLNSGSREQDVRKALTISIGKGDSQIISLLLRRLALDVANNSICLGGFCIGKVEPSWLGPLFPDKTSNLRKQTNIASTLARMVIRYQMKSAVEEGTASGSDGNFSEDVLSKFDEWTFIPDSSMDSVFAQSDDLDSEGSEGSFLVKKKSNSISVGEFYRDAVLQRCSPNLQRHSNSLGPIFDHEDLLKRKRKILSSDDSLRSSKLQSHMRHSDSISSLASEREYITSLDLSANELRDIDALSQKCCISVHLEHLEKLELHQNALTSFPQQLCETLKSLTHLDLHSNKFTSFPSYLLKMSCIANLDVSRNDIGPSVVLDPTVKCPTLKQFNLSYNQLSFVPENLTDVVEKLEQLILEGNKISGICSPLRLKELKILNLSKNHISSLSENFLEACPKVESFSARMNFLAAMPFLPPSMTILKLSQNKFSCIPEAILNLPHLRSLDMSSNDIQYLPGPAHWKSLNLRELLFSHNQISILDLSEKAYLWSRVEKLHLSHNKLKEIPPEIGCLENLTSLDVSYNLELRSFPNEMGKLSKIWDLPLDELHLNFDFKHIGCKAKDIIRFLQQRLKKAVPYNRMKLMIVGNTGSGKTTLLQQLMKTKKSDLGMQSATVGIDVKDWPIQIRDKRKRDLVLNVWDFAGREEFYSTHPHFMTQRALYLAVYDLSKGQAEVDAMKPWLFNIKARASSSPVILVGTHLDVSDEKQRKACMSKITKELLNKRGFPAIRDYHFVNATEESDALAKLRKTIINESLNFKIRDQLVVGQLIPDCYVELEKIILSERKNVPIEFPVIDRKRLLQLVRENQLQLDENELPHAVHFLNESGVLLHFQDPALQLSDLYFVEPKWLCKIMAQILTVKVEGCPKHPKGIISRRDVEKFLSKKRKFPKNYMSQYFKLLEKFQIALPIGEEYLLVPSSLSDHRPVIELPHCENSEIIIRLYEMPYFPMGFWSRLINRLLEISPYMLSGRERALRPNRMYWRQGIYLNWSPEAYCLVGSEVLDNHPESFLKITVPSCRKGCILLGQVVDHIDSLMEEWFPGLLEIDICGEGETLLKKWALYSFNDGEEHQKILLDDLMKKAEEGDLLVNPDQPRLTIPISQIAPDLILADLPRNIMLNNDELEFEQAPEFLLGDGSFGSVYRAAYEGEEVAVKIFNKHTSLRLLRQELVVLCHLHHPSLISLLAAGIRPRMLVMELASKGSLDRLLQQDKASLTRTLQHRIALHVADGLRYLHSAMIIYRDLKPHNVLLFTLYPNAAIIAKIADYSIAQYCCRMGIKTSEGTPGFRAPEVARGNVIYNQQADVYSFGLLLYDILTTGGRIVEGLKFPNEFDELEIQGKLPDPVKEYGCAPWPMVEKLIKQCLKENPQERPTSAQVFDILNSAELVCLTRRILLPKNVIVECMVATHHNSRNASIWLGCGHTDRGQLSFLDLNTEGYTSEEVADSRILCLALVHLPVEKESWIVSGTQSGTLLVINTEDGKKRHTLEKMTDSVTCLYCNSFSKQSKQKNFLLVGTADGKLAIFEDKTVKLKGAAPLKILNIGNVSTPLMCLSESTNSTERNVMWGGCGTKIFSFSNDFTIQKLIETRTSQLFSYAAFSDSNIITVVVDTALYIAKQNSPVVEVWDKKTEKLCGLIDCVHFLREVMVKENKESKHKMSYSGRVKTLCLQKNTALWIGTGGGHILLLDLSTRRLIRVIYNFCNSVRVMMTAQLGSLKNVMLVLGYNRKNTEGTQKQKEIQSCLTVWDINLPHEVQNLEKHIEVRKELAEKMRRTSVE

Structure (SMILES)	IC50 [1]	inhibition at 10 µM [2]	inhibition at 10 µM [3]	inhibition [4]	EC50 [5]	EC50 [6]	Ratio IC50/EC50 [7]	bioavailability [8]
O=C(c1ccc(Nc2cncnc2)c(Cl)c1)N1CCC(N2CCCCC2)CC1	> 1000 nM	40.7%						
O=C(c1ccc(NCc2ccccc2)c(Cl)c1)N1CCC(N2CCCCC2)CC1	> 1000 nM	62.6%	65.3%					
CN1Cc2ccccc2N(C)c2nc(Cl)ncc21	> 1000 nM	64.6%	6.3%					
COc1ccccc1Nc1ccc(C(=O)N2CCC(N3CCCCC3)CC2)cc1Cl	> 1000 nM	58.6%	56.6%					
O=C(c1ccc(Nc2ccccc2)c(Cl)c1)N1CCC(N2CCCCC2)CC1	> 1000 nM	32.3%	44.7%					
O=C(c1ccc(NCc2ccc([N+](=O)[O-])cc2)c(Cl)c1)N1CCC(N2CCCCC2)CC1	> 1000 nM	56.4%	56.3%					
Nc1ccc(C(=O)N2CCC(N3CCCCC3)CC2)cc1Cl	654 nM	49.9%	16.9%					
O=C(c1ccc(NC2CCCCC2)c(Cl)c1)N1CCC(N2CCCCC2)CC1	> 1000 nM	54.2%	82.4%					
Cc1ccc(Nc2ccc(C(=O)N3CCC(N4CCCCC4)CC3)cc2Cl)cc1	> 1000 nM	37.8%	29.7%					
O=C(Nc1ccc(C(=O)N2CCC(N3CCCCC3)CC2)cc1Cl)c1ccc[nH]1	> 1000 nM	51.9%		inactive				
O=C(c1ccc(Nc2ncccn2)c(Cl)c1)N1CCC(N2CCCCC2)CC1	> 1000 nM	39.3%	46.4%					
COc1cccc(Nc2ccc(C(=O)N3CCC(N4CCCCC4)CC3)cc2Cl)c1	> 1000 nM	47.8%	53%					
CCCNc1ccc(C(=O)N2CCC(N3CCCCC3)CC2)cc1Cl	> 1000 nM	55.8%	47.6%					
CN1C(=O)c2ccccc2N(C)c2nc(Nc3ccc(C(=O)N4CCC(N5CCCCC5)CC4)cc3Cl)ncc21	72 nM	87.9%	81.3%		3680 nM	4260 nM	0.017	
CN1Cc2ccccc2N(C)c2nc(Nc3ccc(C(=O)N4CCC(N5CCCCC5)CC4)cc3Cl)ncc21	51.2 nM	58.8%	70%					
O=C(c1ccc(Nc2ccccc2[N+](=O)[O-])c(Cl)c1)N1CCC(N2CCCCC2)CC1	> 1000 nM	45.6%	65.4%					
O=C(c1ccc(Nc2ccc([N+](=O)[O-])cc2)c(Cl)c1)N1CCC(N2CCCCC2)CC1	> 1000 nM	47.9%	53.6%					
COc1cc(C(=O)N2CCC(N3CCN(C)CC3)CC2)ccc1Nc1ncc2c(n1)N(C)c1ccccc1C(=O)N2C	7.9 nM	94.1%	95%		660 nM	830 nM	0.009	49.3%
Cn1cccc1CNc1ccc(C(=O)N2CCC(N3CCCCC3)CC2)cc1Cl	> 1000 nM	42.4%	17.3%					
COc1cccc(CNc2ccc(C(=O)N3CCC(N4CCCCC4)CC3)cc2Cl)c1	> 1000 nM	52%	52.9%					
O=C(c1ccc(Nc2cccnc2)c(Cl)c1)N1CCC(N2CCCCC2)CC1	> 1000 nM	46.6%	36.3%					
CC(=O)Nc1ccc(Nc2ccc(C(=O)N3CCC(N4CCCCC4)CC3)cc2Cl)cc1	> 1000 nM	36.1%	31.8%					
CN1C(=O)c2ccccc2N(C)c2nc(Cl)ncc21	> 1000 nM	23.2%	18%					
Cc1ccc(CNc2ccc(C(=O)N3CCC(N4CCCCC4)CC3)cc2Cl)cc1	> 1000 nM	36.1%	42%					
O=C(c1ccc(Nc2ccccn2)c(Cl)c1)N1CCC(N2CCCCC2)CC1	> 1000 nM	46.7%	7.3%					
